Laboratory results from patent publication US20060069132A1, “Azolecarboxamide herbicides” (priority 2004, published 2006).

Assays:
[1] = test system: bermudagrass; experiment: Test C pre-/postemergence herbicide test; format: in vivo, Cynodon dactylon
Summary of the method: (§1)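 Greenhouse-grown plants were evaluated visually 12 to 14 days after treatment, with 100 meaning complete control and 0 no effect. Application was preemergence, or postemergence at 2 to 18 cm.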

[2] = test system: Surinam grass; experiment: Test C pre-/postemergence herbicide test; format: in vivo, Urochloa decumbens; details: preemergence
Summary of the method: as §1

[3] = test system: corn; experiment: Test C pre-/postemergence herbicide test; format: in vivo, Zea mays; details: preemergence
Summary of the method: as §1

[4] = test system: goosegrass; experiment: Test C pre-/postemergence herbicide test; format: in vivo, Eleusine indica; details: preemergence
Summary of the method: as §1

[5] = test system: johnsongrass; experiment: Test C pre-/postemergence herbicide test; format: in vivo, Sorghum halepense; details: preemergence
Summary of the method: as §1

[6] = test system: morningglory; experiment: Test C pre-/postemergence herbicide test; format: in vivo, Ipomoea coccinea; set-up: key to Plant response rating, Morningglory: 0 = no effect, 100 = complete control; details: preemergence
Summary of the method: as §1

[7] = test system: common ragweed; experiment: Test C pre-/postemergence herbicide test; format: in vivo, Ambrosia elatior; set-up: key to Plant response rating, Ragweed: 0 = no effect, 100 = complete control; details: preemergence
Summary of the method: as §1

[8] = test system: velvetleaf; experiment: Test C pre-/postemergence herbicide test; format: in vivo, Abutilon theophrasti; details: preemergence
Summary of the method: as §1

[9] = test system: ducksalad; experiment: Test C flooded paddy test; format: in vivo, Heteranthera limosa; details: for Plant response rating, Ducksalad: 500 g ai/ha, visual rating after 12 to 14 days
[10] = test system: barnyardgrass; experiment: Test C flooded paddy test; format: in vivo, Echinochloa crus-galli; details: for Plant response rating, Barnyardgrass: 500 g ai/ha, visual rating after 12 to 14 days
Summary of the method: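 Injury scored visually against controls on a 0 (no effect) to 100 (complete control) scale, 12 to 14 days after treatment in greenhouse. Flooded paddy plants treated at 2-leaf stage; postemergence plants at 1- to 4-leaf stage, 2 to 18 cm tall.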

[11] = 62 g ai/ha, preemergence, scale 0 to 100, 0 no effect, 100 complete control
[12] = 250 g ai/ha, scale 0-100, preemergence
[13] = 500 g ai/ha, scale 0 to 100 (0 no effect, 100 complete control), visual, 12 to 14 days
[14] = 125 g ai/ha, scale 0 (no effect) to 100 (complete control), visual, 12 to 14 days
[15] = 125 g ai/ha, scale 0 to 100 (0 no effect, 100 complete control)
[16] = 250 g ai/ha, scale of 0 to 100, 0 is no effect, 100 is complete control
[17] = scale 0 to 100 (0 no effect, 100 complete control)
[18] = 62 g ai/ha, scale 0 to 100 (0 no effect, 100 complete control)

SMILES	Plant response rating, Bermudagrass [1, 11]	Plant response rating, Bermudagrass [1, 12]	Plant response rating, Surinam Grass ([2]; 62 g ai/ha, scale 0 to 100)	Plant response rating, Surinam Grass ([2]; 250 g ai/ha, scale 0-100)	Plant response rating, Surinam Grass [2, 13]	Plant response rating, Corn ([3]; 62 g ai/ha, scale 0 to 100)	Plant response rating, Corn ([3]; 250 g ai/ha, scale 0-100)	Plant response rating, Corn [3, 13]	Plant response rating, Goosegrass ([4]; 62 g ai/ha, scale 0 to 100)	Plant response rating, Goosegrass ([4]; 250 g ai/ha, scale 0-100)	Plant response rating, Goosegrass [4, 13]	Plant response rating, Johnsongrass ([5]; 62 g ai/ha, scale 0 to 100)	Plant response rating, Johnsongrass ([5]; 250 g ai/ha, scale 0-100)	Plant response rating, Johnsongrass [5, 13]	Plant response rating, Morningglory ([6]; 62 g ai/ha, scale 0 to 100)	Plant response rating, Morningglory ([6]; 250 g ai/ha, scale 0-100)	Plant response rating, Morningglory [6, 13]	Plant response rating, Ragweed ([7]; 62 g ai/ha, scale 0 to 100)	Plant response rating, Ragweed ([7]; 250 g ai/ha, scale 0-100)	Plant response rating, Ragweed [7, 13]	also measured
CCN1N=C(C(C)(C)C)CC1C(=O)Nc1cc(C(=O)N2CCCC2)ccc1F (racemic) [Compound 309]	90	95	50	90	100	5	40	60	85	100	100	75	95	100	0	5	40	50	70	100	Plant response rating, Bermudagrass ([1]; 125 g ai/ha, scale 0 (no effect) to 100 (complete control), visual, 12 to 14 days, preemergence): 90; Bermudagrass plant response rating ([1]; Preemergence, 500 g ai/ha, scale 0 to 100, 0 no effect, 100 complete control): 100; Plant response rating, Corn [3, 14]: 20; Plant response rating, Goosegrass [4, 14]: 85; Plant response rating, Johnsongrass [5, 14]: 80; Plant response rating, Morningglory [6, 14]: 5; Plant response rating, Velvetleaf ([8]; 62 g ai/ha, scale 0 to 100): 5; Plant response rating, Velvetleaf ([8]; 250 g ai/ha, scale 0-100): 75; Plant response rating, Velvetleaf [8, 13]: 100; Ducksalad plant response rating ([9]; 62 g ai/ha, scale 0 to 100): 85; Ducksalad plant response rating [9, 15]: 90; Ducksalad plant response rating [9, 16]: 90; Plant response rating, Ducksalad [9, 17]: 90; Barnyardgrass plant response rating [10, 18]: 50; Barnyardgrass plant response rating [10, 15]: 60; Barnyardgrass plant response rating [10, 16]: 85; Plant response rating, Barnyardgrass [10, 17]: 90
CCC1=NN(C(C)(C)C)CC1C(=O)Nc1cc(C(=O)N2CC=CC2)ccc1F (racemic) [Compound 340]	20	85	0	65	85	5	45	50	5	85	90	15	50	90	0	10	50	0	20	75	Plant response rating (0 = no effect, 100 = complete control), Bermudagrass ([1]; 125 g ai/ha, preemergence): 70; Plant response rating, Bermudagrass ([1]; 500 g ai/ha, scale 0 to 100 (0 no effect, 100 complete control), visual, 12 to 14 days, preemergence): 100; Plant response rating (0 = no effect, 100 = complete control), Surinam Grass ([2]; 125 g ai/ha): 60; Plant response rating (0 = no effect, 100 = complete control), Corn ([3]; 125 g ai/ha): 45; Plant response rating (0 = no effect, 100 = complete control), Goosegrass ([4]; 125 g ai/ha): 60; Plant response rating (0 = no effect, 100 = complete control), Johnsongrass ([5]; 125 g ai/ha): 50; Plant response rating (0 = no effect, 100 = complete control), Morningglory ([6]; 125 g ai/ha): 5; Plant response rating (0 = no effect, 100 = complete control), Ragweed ([7]; 125 g ai/ha): 0; Plant response rating, Velvetleaf ([8]; 62 g ai/ha, scale 0 to 100): 0; Plant response rating (0 = no effect, 100 = complete control), Velvetleaf ([8]; 125 g ai/ha): 60; Plant response rating, Velvetleaf ([8]; 250 g ai/ha, scale 0-100): 95; Plant response rating, Velvetleaf [8, 13]: 100; Ducksalad plant response rating ([9]; 62 g ai/ha, scale 0 to 100): 50; Ducksalad plant response rating [9, 15]: 70; Ducksalad plant response rating [9, 16]: 70; Plant response rating, Ducksalad [9, 17]: 90; Barnyardgrass plant response rating [10, 18]: 20; Barnyardgrass plant response rating [10, 15]: 50; Barnyardgrass plant response rating [10, 16]: 60; Plant response rating, Barnyardgrass [10, 17]: 70
